# Measurements: patent US20180296523A1, “USE OF POLYMETHOXYLATED FLAVONES TO AMELIORATE CIRCADIAN RHYTHM DISORDERS” (THE BOARD OF REGENTS OF THE UNIVERSITY OF TEXAS SY, priority 2017, published 2018)
# Entries after “also recorded” stand apart in the source; their conditions may differ.
# Experiments:
# [1] = tested on: db/db and db/db Clock^Δ19/Δ19 mice; assay: db/db diabetic mice and db/db Clock^Δ19/Δ19 double-mutant mice; assay type: in vivo, mouse
# Method: Weekly body weight was monitored in different treatment mice for 10 weeks. Body mass composition was measured at the end of experiments using a minispec mqNMR spectrometer (Bruker Optics, Texas) (Garcia et al., 2013). A control group of mice were fed with regular chow diet (Purina 5001) in parallel with the two treatment groups in HFD. For db/db and db/db Clock^Δ19/Δ19 mice, male mice at 6-8 weeks of age were group-housed (2-3/cage) and maintained on regular chow diets. Mice were subjected to oral gavage with either DMSO or NOB as described above.
# Serum samples were obtained at ZT2 from treated mice as previously described (Jeong et al., 2015). Hepatic triglyceride and cholesterol were extracted as previously described (Liu et al., 2012). The triglyceride and cholesterol levels in liver and serum were assessed by Serum Triglyceride Determination Kit (Sigma) and Cholesterol Assay Kit (Cayman), respectively. The assay plates were read by a TECAN M200 instrument (Tecan) following the manufacturer's instructions.
# Glucose tolerance test (GTT) and insulin tolerance test (ITT) were performed largely as described (He et al., 2015; Jeong et al., 2015). Briefly, after overnight and 5-hr fasting, GTT and ITT were conducted at ZT2 and ZT8 respectively. Glucose levels were measured from tail blood before and 15, 30, 60, or 120 min after injection of either 1 g/kg glucose or 0.75 U/kg insulin (Sigma) at ZT2 and ZT8 respectively by using the ONETOUCH UltraMini blood glucose monitoring system (LifeScan). Serum insulin levels were measured with the Rat/Mouse Insulin Elisa kit (Millipore) according to the manufacturer's instructions. The plasma samples were collected at ZT2 as described above for lipid assays.
# RORγt = target: T1, RORγt (Homo sapiens, UniProt P51449); details: Huh et al., 2011; cited from earlier work
# T1 sequence (P51449 1-497 isoform P51449-2): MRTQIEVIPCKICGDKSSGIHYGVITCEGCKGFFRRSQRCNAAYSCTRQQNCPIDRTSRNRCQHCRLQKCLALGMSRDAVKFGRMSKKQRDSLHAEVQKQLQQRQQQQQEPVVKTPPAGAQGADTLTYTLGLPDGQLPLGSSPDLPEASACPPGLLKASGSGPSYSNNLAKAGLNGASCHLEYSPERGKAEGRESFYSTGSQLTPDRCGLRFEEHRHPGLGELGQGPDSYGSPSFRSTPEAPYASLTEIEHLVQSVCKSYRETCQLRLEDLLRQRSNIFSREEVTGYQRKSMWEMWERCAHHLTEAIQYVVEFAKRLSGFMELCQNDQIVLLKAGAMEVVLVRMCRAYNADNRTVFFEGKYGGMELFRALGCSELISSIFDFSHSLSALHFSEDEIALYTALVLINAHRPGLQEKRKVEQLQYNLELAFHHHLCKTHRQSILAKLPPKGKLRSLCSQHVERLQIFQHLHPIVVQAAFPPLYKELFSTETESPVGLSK
# [2] = tested on: PER2::Luc Clock^Δ19/Δ19 fibroblast cells; assay: Reporter rhythm in homozygous Clock^Δ19/Δ19 reporter cells; assay type: cell-based, mouse; details: clock-disrupted homozygous Clock^Δ19/Δ19 cells
# [3] = tested on: core clock genes in PER2::LucSV cells; assay: Real-time qPCR and Western blot of clock genes in PER2::LucSV cells; assay type: cell-based, mouse
# Method: For qPCR analysis, cells were split into 6-well plates at an initial density of 3×10^5 cells and incubated for 2-4 days before synchronization (5 μM Fsk or 100 nM Dex) followed by compound treatment. RNA samples were prepared by using PureXtract RNAsol for cDNA synthesis and real-time PCR (GenDEPOT) was performed with a MaxPro3000 Thermocycler (Agilent). qPCR primers used are listed in the table shown in Example 4. Whole cell lysates from cells similarly grown and treated in 60 mm dishes and tissue extracts were prepared as described (Yoo et al., 2013) and subjected to Western blot analysis (GenDEPOT). Antibodies for REV-ERBα (Pierce and Cell Signaling), PER1 (Lee et al., 2001) and other clock proteins (Yoo et al., 2013) were used.
# [4] = Pharmacokinetic study in mice (LC-MS/MS); assay type: in vivo; details: mouse, oral gavage 200 mg/kg; for exposure in plasma/serum, brain and liver: single dose, 200 mg/kg
# Method: For diet-induced obesity, male mice at 6 weeks of age were fed with HFD (D12492, Research Diets) until the end of the experimental protocol. The mice were treated with either vehicle (DMSO) or NOB (200 mg/kg body weight) via oral gavage every other day, in the time window of ZT8-10, throughout the experimental period. An every-other-day dosing regimen was chosen at the indicated level based on several reasons. First, previous in vivo studies have used similar overall amounts for mouse treatment (100-125 mg/kg/day) (Lee et al., 2013; Li et al., 2006). The oral gavage procedure was done in late afternoon (ZT8-10) prior to the start of their active phase, reasoning that this may coincide with the time-window adopted by previous studies. Second, daily dosing was not chosen to avoid entraining the experimental mice with the procedure per se as an artificial zeitgeber. Furthermore, pilot pharmacokinetic (PK) assays were done under a single-dose condition (Fig. S7). […] Therefore, it was reasoned that every-other day dosing helps avoid any incomplete daily clearance over the chronic experimental period (10 weeks). NOB was administered orally at ZT8 at a dose of 200 mg/kg in 0.25% sodium Carboxy Methyl Cellulose (CMC) suspension. Three mice per time point were sacrificed at 0.0, 1.0, 2.0, 4.0, 8.0 and 24.0 hr after oral gavage. NOB in plasma, brain and liver was determined by LC-MS/MS (API 4000: EQ-RS-MS-006).
compound,measurement,setting,value
COc1ccc(-c2cc(=O)c3c(OC)c(OC)c(OC)c(OC)c3o2)cc1OC [nobiletin],overall metabolic response to treatment,"[1]; db/db Clock^Δ19/Δ19 double-mutant mice, in contrast to db/db",markedly attenuated response
same,circulating insulin levels,[1]; db/db Clock^Δ19/Δ19 mutant mice,strongly reduced circulating insulin levels
same,circulating insulin levels,[1]; db/db mice,strongly reduced circulating insulin levels
same,fasting glucose levels,[1]; db/db mice,lowered fasting glucose levels
same,glucose tolerance (GTT),[1]; db/db mice,improved
same,insulin sensitivity (ITT),[1]; db/db mice,improved
same,serum total cholesterol (TC),[1]; db/db mice,reduced
same,serum total triglyceride (TG),[1]; db/db mice,reduced
same,body weight gain,"[1]; db/db mice, RC, 10 weeks",strongly blunted body weight gain
same,effect on RORγt in primary screen,RORγt,activated RORγt
same,restoring reporter rhythm,[2],ineffective in restoring the rhythm; also recorded: not able to rescue reporter rhythms
same,CRY1 protein abundance,[3],slight trend of greater protein abundance
same,CRY1 transcript level,[3],markedly reduced transcript level
same,Pert transcript levels,[3],moderately altered and reduced at CT20
same,expression of other core clock genes,[3],altered
same,PER2 proteins,[3]; Western blot,accumulate to greater levels
same,NOB level 8 hr after single-dose administration,[4],undetectable
same,"exposure in plasma/serum, brain and liver",[4],significant brain and systemic exposure
same,"exposure in plasma/serum, brain and liver",[4]; listed as NOB,"significant exposure in serum, brain and particularly liver"
